This is an account of results in US5516759A, “LHRH antagonists having lactam groups at the N-terminus” (TAP Holdings Inc., priority 1994, dated 1996).

In this test the target is T1, LHRH (Rattus norvegicus, UniProt P30969).
T1 construct: endogenous in cells
T1 sequence (P30969 1-327): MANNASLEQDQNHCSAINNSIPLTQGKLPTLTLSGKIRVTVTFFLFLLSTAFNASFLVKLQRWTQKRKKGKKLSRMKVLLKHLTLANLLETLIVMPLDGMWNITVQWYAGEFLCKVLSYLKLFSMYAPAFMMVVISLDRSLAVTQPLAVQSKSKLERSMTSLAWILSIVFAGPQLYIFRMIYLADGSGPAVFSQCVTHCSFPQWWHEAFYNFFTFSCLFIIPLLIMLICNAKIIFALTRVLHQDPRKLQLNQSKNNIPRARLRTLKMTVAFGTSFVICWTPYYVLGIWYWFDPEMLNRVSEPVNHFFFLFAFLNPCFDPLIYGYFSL
The test can be described thus: in vitro test for LHRH antagonist potency (pA2). The conditions noted are these: negative logarithm of the antagonist concentration required to shift the response curve produced by the agonist leuprolide to two-fold higher concentration. The format is cell-based. The procedure: Representative compounds of the present invention were evaluated in an in vitro test for LHRH antagonist potency (pA2). The test employed the method detailed in F. Haviv, et al. J. Med. Chem., 32:2340-2344 (1989). The values of pA2 are the negative logarithms of the concentration of the particular antagonist test compound required to shift the response curve produced by the agonist leuprolide to two-fold higher concentration. (Leuprolide is disclosed and claimed in U.S. Pat. No. 4,005,063.) Typically pA2 values of 9.5 or greater are indicative of good LHRH antagonist potency, with values of 10.0 or greater being preferred.

Where a SMILES comes first, the peptide text is derived from it. [ ]: non-standard residue; d: D form. The star is where a group is joined. d2Nal(N,N-(CH2)3CO) = O=C1CCCN1[C@H](Cc1ccc2ccccc2c1)C(=O)*; Shikimoyl = O=C(C1=C[C@@H](O)[C@@H](O)[C@H](O)C1)*; dPhe(4-Cl) = N[C@H](Cc1ccc(Cl)cc1)C(=O)O; NMeY = CN[C@@H](Cc1ccc(O)cc1)C(=O)O; d3Pal = N[C@H](Cc1cccnc1)C(=O)O

The Kb is the equilibrium dissociation constant of an antagonist, usually derived from a functional assay. As to `CC(C)C[C@H](NC(=O)[C@@H](CCCCNC(=O)C1=C[C@@H](O)[C@@H](O)[C@H](O)C1)NC(=O)[C@H](Cc1ccc(O)cc1)N(C)C(=O)[C@H](CO)NC(=O)[C@@H](Cc1cccnc1)NC(=O)[C@@H](Cc1ccc(Cl)cc1)NC(=O)[C@@H](Cc1ccc2ccccc2c1)N1CCCC1=O)C(=O)N[C@@H](CCCNC(=N)N)C(=O)N1CCC[C@H]1C(=O)N[C@H](C)C(N)=O` [Example 2, 5LactD2Nal^1 -D4ClPhe^2 -D3Pal^3 -Ser^4 -NMeTyr^5 -DLys(N-epsilon-Shik)^6 -Leu^7 -Arg^8 -Pro^9 -DAla^10 NH2] ({d2Nal(N,N-(CH2)3CO)}-[dPhe(4-Cl)][d3Pal]S[NMeY][dK](Shikimoyl)LRP[dA]-NH2), the Kb was 0.0263 nM.
